Biological target: T1, human GPR84 receptor (Homo sapiens, UniProt Q9NQS5)
T1 construct: host or cells: HEK293, transiently transfected
Assay: Gαi biosensor BRET assay (GPR84 antagonism vs agonist ZQ-16)
Type: cell-based
Details: HEK293 cells, 200 nmol/L agonist ZQ-16; for inhibition at 10 µM: tested at 10 μM (concentration code D); for IC50: Gαi biosensor BRET assay; for inhibition at 2 µM: tested at 2 μM (concentration code A)
Summary of the method: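 HEK293 cells transiently expressing GPR84, Gαi2-Rluc8, GFP10-Gγ2 and Gβ1 were pre-incubated with compounds 5 min at 37 °C in Tyrode's buffer pH 7.5, then stimulated with 200 nmol/L ZQ-16 for 5 min at room temperature. BRET2 (acceptor/donor ratio) read after 5 μmol/L coelenterazine 400A, background- and vehicle-corrected.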

T1 sequence (Q9NQS5 whole entry): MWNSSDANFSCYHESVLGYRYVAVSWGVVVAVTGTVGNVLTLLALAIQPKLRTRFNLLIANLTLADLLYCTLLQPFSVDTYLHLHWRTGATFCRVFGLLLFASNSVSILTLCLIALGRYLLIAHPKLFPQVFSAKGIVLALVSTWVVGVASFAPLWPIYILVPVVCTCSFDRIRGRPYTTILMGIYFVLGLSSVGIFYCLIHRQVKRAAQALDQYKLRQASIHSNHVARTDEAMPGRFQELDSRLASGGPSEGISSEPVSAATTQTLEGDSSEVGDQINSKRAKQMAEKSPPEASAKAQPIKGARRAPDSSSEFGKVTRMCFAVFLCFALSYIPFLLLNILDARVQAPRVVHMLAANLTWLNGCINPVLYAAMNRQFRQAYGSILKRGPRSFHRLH

Q: Which inhibition at 10 µM does the source give for `C[C@H](c1ccc(C#CC2CC2)cc1)n1c(CO)cc(OCC(=O)N(C)C)cc1=O` [Compound I-287] here?
A: The inhibition at 10 µM was greater than 75%.

Q: `Cc1cc(OCC(=O)N2CCCC2)cc(=O)n1[C@H](C)c1ccc(C#CC2CC2)c(F)c1` [Compound I-25] was tested. Which IC50 did it give?
A: Its IC50 is no more than 300 nM.

Q: And the inhibition at 2 µM?
A: The inhibition at 2 µM was greater than 75%.

Q: What does the source list for `Cc1cc(OCC(=O)N2C[C@@H](O)[C@H](O)C2)cc(=O)n1[C@H](C)c1ccc(C#CC2CC2)cc1` [Compound I-315]?
A: IC50: ≤ 300 nM; inhibition at 10 µM: > 75%

Q: For `CNS(=O)(=O)COc1cc(C)n([C@H](C)c2ccc(C#CC3CC3)cc2)c(=O)c1` [Compound I-47], which inhibition at 10 µM is on record?
A: The inhibition at 10 µM was 50 to 75%.

Q: What does the source list for `Cc1cc(OCC(=O)N2CCC[C@@H]2C(N)=O)cc(=O)n1[C@H](C)c1ccc(C#CC2CC2)cc1` [Compound I-318]?
A: IC50: 300 to 1000 nM; inhibition at 10 µM: > 75%

Q: How did the inhibition at 10 µM turn out when `Cc1cc(OCC(=O)N(C)C)cc(=O)n1C(C)c1ccc(C#CC2CC2)cc1Cl` (centres unmarked) [Compound I-262] was run?
A: Its inhibition at 10 µM is greater than 75%.

Q: How did the inhibition at 10 µM turn out when `Cc1noc(COc2cc(C)n([C@H](C)c3ccc(C#CC4CC4)c(F)c3)c(=O)c2)n1` [Compound I-18] was run?
A: The inhibition at 10 µM was greater than 75%.

Q: What does the source list for `Cc1cc(OCc2cnc(NS(C)(=O)=O)nc2)cc(=O)n1[C@H](C)c1ccc(C#CC2CC2)cc1` [Compound I-81]?
A: IC50: ≤ 300 nM; inhibition at 10 µM: > 75%

Q: For `Cc1cc(OCc2nnnn2C)cc(=O)n1[C@H](C)c1ccc(C#CC2CC2)cc1` [Compound I-260], which IC50 is on record?
A: The IC50 was no more than 300 nM.

Q: What about the inhibition at 2 µM of the same compound?
A: The inhibition at 2 µM was greater than 75%.

Q: Which inhibition at 10 µM does the source give for `Cc1cc(OCC(=O)O)cc(=O)n1[C@@H](C)c1ccc(C#CC2CC2)cc1` [Compound I-303] here?
A: Its inhibition at 10 µM is less than 25%.

Q: For `Cc1cc(OCC(=O)N(C)CC(F)(F)F)cc(=O)n1[C@@H](C)c1ccc(C#CC2CC2)cc1` [Compound I-237], which inhibition at 10 µM is on record?
A: The inhibition at 10 µM was less than 25%.

Q: `Cc1cc(C#CC2CC2)cc(=O)n1[C@H](C)c1ccc(Br)cc1` [Compound I-240] was tested. Which inhibition at 10 µM did it give?
A: Its inhibition at 10 µM is less than 25%.

Q: For `CCCC#Cc1ccc([C@@H](C)n2c(C)cc(OCC(=O)N(C)C)cc2=O)cc1` [Compound I-20], which IC50 is on record?
A: The IC50 was no more than 300 nM.

Q: And the inhibition at 10 µM?
A: The inhibition at 10 µM was greater than 75%.

Q: What does the source list for `CCN(C)C(=O)COc1cc(C)n([C@H](C)c2ccc(C#CC3CC3)cc2)c(=O)c1` [Compound I-267]?
A: IC50: ≤ 300 nM; inhibition at 2 µM: > 75%

Q: For `Cc1cc(OCC(=O)N2CC(C(=O)O)C2)cc(=O)n1[C@H](C)c1ccc(C#CC2CC2)cc1` [Compound I-302], which IC50 is on record?
A: Its IC50 is no more than 300 nM.

Q: And the inhibition at 2 µM?
A: Its inhibition at 2 µM is greater than 75%.

Q: With `Cc1nc(OCC(=O)N(C)C)cc(=O)n1C(C)c1ccc(C#CC2CC2)cc1` (centres unmarked) [Compound I-89] as the compound, how does the IC50 read?
A: Its IC50 is no more than 300 nM.

Q: What about the inhibition at 2 µM of the same compound?
A: Its inhibition at 2 µM is greater than 75%.

Q: `Cc1cc(OCc2cnc(C3CC3)cn2)cc(=O)n1C(C)c1ccc(OCC2CCCCO2)c(F)c1` (centres unmarked) [Compound I-13] was tested. Which inhibition at 10 µM did it give?
A: Its inhibition at 10 µM is less than 25%.

Q: With `Cc1cc(OCC(=O)NCCN2CCCC2)cc(=O)n1[C@H](C)c1ccc(C#CC2CC2)cc1` [Compound I-346] as the compound, how does the inhibition at 10 µM read?
A: The inhibition at 10 µM was 25 to 50%.

Q: What does the source list for `CNS(=O)(=O)[C@H]1CCN(C(=O)COc2cc(C)n([C@H](C)c3ccc(C#CC4CC4)cc3)c(=O)c2)C1` [Compound I-322]?
A: IC50: 300 to 1000 nM; inhibition at 2 µM: > 75%

Q: How did the IC50 turn out when `Cc1cc(OCC(=O)N(C)C)cc(=O)n1[C@H](C)c1ccc(C#CC2CC2(F)F)cc1` (some centres unmarked) [Compound I-63] was run?
A: The IC50 was no more than 300 nM.

Q: And the inhibition at 10 µM?
A: The inhibition at 10 µM was greater than 75%.

Q: Which results are given for `Cc1cc(OCC(=O)N(C)C)cc(=O)n1[C@H](C)c1ccc(C#CC2CC2)c(Br)c1` [Compound I-35]?
A: IC50: ≤ 300 nM; inhibition at 2 µM: > 75%

Q: `COCC1CN(C(=O)COc2cc(C)n([C@H](C)c3ccc(C#CC4CC4)cc3)c(=O)c2)C1` [Compound I-292] was tested. Which IC50 did it give?
A: Its IC50 is no more than 300 nM.

Q: What about the inhibition at 2 µM of the same compound?
A: The inhibition at 2 µM was greater than 75%.

Q: How did the inhibition at 10 µM turn out when `Cc1noc(COc2cc(C)n([C@H](C)c3ccc(C#CC4CC4)cc3)c(=O)c2)n1` [Compound I-12] was run?
A: Its inhibition at 10 µM is greater than 75%.

Q: What does the source list for `COC(COc1cc(C)n([C@H](C)c2ccc(C#CC3CC3)cc2)c(=O)c1)C(C)(C)C` (some centres unmarked) [Compound I-277]?
A: IC50: > 3000 nM; inhibition at 10 µM: > 75%

Q: What does the source list for `Cc1cc(OCC(=O)N2CCC(F)(F)C2)cc(=O)n1[C@H](C)c1ccc(C#CC2CC2)cc1` [Compound I-257]?
A: IC50: ≤ 300 nM; inhibition at 2 µM: > 75%

Q: Which inhibition at 10 µM does the source give for `Cn1c(-c2ccc(C#CC3CC3)cc2)cc(OCC2COCCO2)nc1=O` (centres unmarked) [Compound I-215] here?
A: The inhibition at 10 µM was less than 25%.

— patent US20260055117A1, “SUBSTITUTED PYRIDONE GPR84 ANTAGONISTS AND USES THEREOF” (Liminal BioSciences Limited, priority 2022, published 2026)
